For series [1], the system named is A549. Briefly: Cytotoxicity against human A549 cells assessed as reduction in cell viability measured after 72 hrs by MTT assay. It counts as cell-based.
Series [2] concerns PBMC. Briefly: Cytotoxicity against human PBMC assessed as reduction in cell viability at 0.1 to 10 uM measured after 24 hrs by MTT assay. It counts as cell-based. Background: Tetrazolium assays rely on reduction of a dye to a coloured formazan, in cell work by metabolically active cells.
For series [3], the target named is Glycogen synthase kinase-3 beta (Homo sapiens, UniProt P49841). Description: Inhibition of recombinant human GSK3beta using YRRAAVPPSPSLSRHSSPHQ(pS)EDEEE as substrate measured after 60 mins by ADP-Glo luminescence assay. For orientation: In ADP-Glo the light output rises with the ADP produced.
The subject of series [4] is Rattus norvegicus. Briefly: Antidiabetic activity in […]/STZ-induced obese type-2 diabetes Wistar rat model assessed as reduction in blood glucose level at 50 mg/kg, ip pretreated for 30 mins followed by glucose challenge and measured up to 120 mins by OGTT. The series is classed as functional, organism-based.
The subject of series [5] is PBMC. Briefly: Cytotoxicity against human PBMC assessed as reduction in cell viability at 10 uM measured after 24 hrs by MTT assay. The series is classed as cell-based.
In series [6] the test system is Rattus norvegicus. Briefly: Antidiabetic activity in […]/STZ-induced obese type-2 diabetes Wistar rat model assessed as reduction in blood glucose level at 10 mg/kg, ip pretreated for 30 mins followed by glucose challenge and measured up to 120 mins by OGTT. It counts as functional, organism-based.
Setting [7] is: Homo sapiens, A549, 72 h, read-out: IC50.

The record followed here is ChEMBL document CHEMBL4392829, “Synthesis and biological evaluation of 3-substituted 2-oxindole derivatives as new glycogen synthase kinase 3β inhibitors” (Bioorg Med Chem, 2019).

Structures are written as SMILES. Activity calls are given as the source filed them. No cut-off for these calls is given here.

Glycogen synthase kinase-3 beta, sequence (P49841 whole entry): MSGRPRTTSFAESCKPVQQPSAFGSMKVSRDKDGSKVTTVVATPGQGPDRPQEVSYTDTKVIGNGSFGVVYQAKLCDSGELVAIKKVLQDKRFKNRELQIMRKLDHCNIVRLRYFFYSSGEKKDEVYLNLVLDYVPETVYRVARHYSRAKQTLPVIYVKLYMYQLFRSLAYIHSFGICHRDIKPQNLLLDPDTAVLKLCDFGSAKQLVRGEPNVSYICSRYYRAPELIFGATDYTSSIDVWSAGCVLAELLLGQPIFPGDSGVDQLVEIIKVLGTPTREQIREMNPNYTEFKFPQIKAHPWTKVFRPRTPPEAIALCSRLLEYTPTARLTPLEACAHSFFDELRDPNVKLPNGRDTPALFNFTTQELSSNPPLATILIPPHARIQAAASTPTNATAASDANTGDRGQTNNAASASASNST

The IC50 is the concentration at which inhibition is half-maximal. `COC(=O)Nc1ccc2c(c1)C(=Cc1ccc([N+](=O)[O-])cc1)C(=O)N2` (mixture of isomers): the IC50 in series [1] (a549, read-out: IC50) is more than 100 µM. Further, in series [2], the Activity entry is given as “Non-Toxic”.

In the case of `CC(=O)Nc1ccc2c(c1)/C(=C/c1cccc(O)c1)C(=O)N2`, the IC50 was more than 10 µM in series [3] and 176 µM in series [1] (setting [7]).

Consider `N#CCC1(O)C(=O)Nc2ccc(NC(=O)c3ccccc3)cc21` (stereo not given), for which the IC50 in series [3] is more than 10 µM.

On to `CC(=O)Nc1ccc2c(c1)C(CC(=O)O)(OC(C)=O)C(=O)N2` (stereo not given), for which the IC50 in series [3] is more than 10 µM.

Take `O=C1Nc2ccccc2/C1=C/c1cccs1`: the IC50 in series [3] was more than 10 µM; in series [1] (setting [7]), 491 µM.

In the case of `Cc1ccc(C(=O)CC2(O)C(=O)Nc3ccccc32)cc1` (stereo not given), the half-maximal inhibitory concentration (IC50) in series [3] was more than 10 µM; in series [1] (setting [7]), 171 µM.

In the case of `COc1cccc2c1C(=O)c1c(O)c3c(c(O)c1C2=O)C[C@@](O)(C(C)=O)C[C@@H]3O[C@H]1C[C@H](N)[C@H](O)[C@H](C)O1` [DAUNORUBICIN], the IC50 in series [1] (setting [7]) worked out at 0.15 µM.

On to `COc1cc(/C=C2\C(=O)Nc3ccc(NC(C)=O)cc32)cc(OC)c1OC`, for which, in series [1] (a549, read-out: IC50), the IC50 was 149 µM. Besides, the Activity entry in series [2] was “Non-Toxic”.

With `O=C1Nc2ccccc2/C1=C/c1ccccn1`, the IC50 in series [3] worked out at 0.00419 µM; in series [1] (setting [7]), 48 µM. In series [4], the outcome was Active. Further, the Activity entry in series [2] was “Non-Toxic”.

Regarding `CC[C@@]1(O)C(=O)OCc2c1cc1n(c2=O)Cc2cc3ccccc3nc2-1` [CAMPTOTHECIN], the half-maximal inhibitory concentration (IC50) in series [1] (setting [7]) is 3.32 µM.

For `O=C1Nc2ccc([N+](=O)[O-])cc2C1=Cc1ccncc1` (mixture of isomers), the IC50 was more than 10 µM in series [3] and “Non-Toxic” in series [1] (a549).

Consider `O=C1Nc2ccc(Br)cc2/C1=C\c1ccccn1`, for which the IC50 in series [3] is more than 10 µM; in series [1] (setting [7]), 90.6 µM.

As for `Cc1ccc(C(=O)/C=C2\C(=O)Nc3ccccc32)cc1`, the 50% inhibitory concentration (IC50) in series [3] was more than 10 µM; in series [1] (setting [7]) it was 18.7 µM.

Take `O=C1Nc2ccccc2/C1=C/c1ccco1`: the IC50 in series [3] was more than 10 µM; in series [1] (setting [7]), 595 µM.

For the compound `COc1ccc2c(c1)/C(=C/C(=O)O)C(=O)N2`, the 50% inhibitory concentration (IC50) in series [3] was more than 10 µM.

Consider `O=C1Nc2ccc([N+](=O)[O-])cc2C1=Cc1cccnc1` (mixture of isomers), for which the IC50 was more than 10 µM in series [3] and 429 µM in series [1] (a549, read-out: IC50).

For `COC(=O)Nc1ccc2c(c1)/C(=C/c1ccc(O)cc1)C(=O)N2`, the IC50 in series [1] (a549, read-out: IC50) was 44.4 µM. Moreover, the Activity entry in series [2] is listed as “Non-Toxic”.

`O=C1Nc2ccc([N+](=O)[O-])cc2/C1=C\c1ccccn1`: the half-inhibitory concentration (IC50) is 20 µM in series [3] and “Non-Toxic” in series [1] (a549).

For `O=C1Nc2ccc(Br)cc2C1=Cc1ccncc1` (mixture of isomers), the 50% inhibitory concentration (IC50) is more than 10 µM in series [3] and 22.3 µM in series [1] (setting [7]).

Consider `COc1ccc(C(=O)CC2(O)C(=O)Nc3ccc(Br)cc32)cc1` (stereo not given), for which the figures for the IC50 in series [3] and in series [1] (setting [7]) were more than 10 µM and 474 µM, respectively.

Regarding `COc1ccc2c(c1)C(O)(CC(=O)c1ccc(C)cc1)C(=O)N2` (stereo not given), the IC50 is more than 10 µM in series [3] and more than 100 µM in series [1] (setting [7]).

As for `Cc1ccc(C(=O)CC2(O)C(=O)Nc3ccc(Br)cc32)cc1` (stereo not given), the results for the 50% inhibitory concentration (IC50) in series [3] and in series [1] (setting [7]) were more than 10 µM and more than 100 µM, respectively.

On to `O=C1Nc2ccccc2C1=Cc1ccncc1` (mixture of isomers), for which the 50% inhibitory concentration (IC50) in series [3] was more than 10 µM; in series [1] (setting [7]) it was 80.3 µM.

For `O=C1Nc2ccc(NC(=O)c3ccccc3)cc2/C1=C/c1ccc(O)cc1`, the IC50 in series [3] stood at 4.34 µM; in series [1] (a549, read-out: IC50) it was 412 µM. Moreover, the Activity result in series [5] is on record as “Toxic”.

With `O=C1Nc2ccc([N+](=O)[O-])cc2/C1=C/c1ccco1`, the 50% inhibitory concentration (IC50) stood at 12.8 µM in series [3] and 329 µM in series [1] (a549, read-out: IC50).

As for `O=C1Nc2ccccc2C12CC2c1ccccn1` (stereo not given), the IC50 in series [3] was 1.23 µM; in series [1] (setting [7]), more than 100 µM. The Activity entry in series [2] is listed as “Non-Toxic”.

Take `N#C[C@@H]1CCCN1C(=O)CNC12CC3CC(CC(O)(C3)C1)C2`: in series [6], the outcome was Active.

Regarding `CCC(=O)Nc1cc(NC(=O)CC)c2c(c1)C(CC#N)(OC(=O)CC)C(=O)N2` (stereo not given), the 50% inhibitory concentration (IC50) in series [3] is more than 10 µM.

On to `COc1cccc2c1C(=O)c1c(O)c3c(c(O)c1C2=O)C[C@@](O)(C(=O)CO)C[C@@H]3O[C@H]1C[C@H](N)[C@H](O)[C@H](C)O1` [DOXORUBICIN], for which, in series [1] (setting [7]), the IC50 was found to be 0.17 µM.

`O=C1Nc2ccc(Br)cc2C1=Cc1cccnc1` (mixture of isomers): the IC50 in series [3] was more than 10 µM; in series [1] (setting [7]), 31.4 µM.

As for `COc1cc(NC(C)=O)c2c(c1)C(CC#N)(OC(C)=O)C(=O)N2` (stereo not given), the IC50 in series [3] was more than 10 µM.

Take `COC(=O)Nc1ccc2c(c1)/C(=C/c1ccc(Br)cc1)C(=O)N2`: the IC50 in series [3] was more than 10 µM; in series [1] (setting [7]) it was more than 100 µM.

On to `COc1ccc2c(c1)/C(=C/C#N)C(=O)N2Cc1ccccc1`, for which the 50% inhibitory concentration (IC50) in series [3] is more than 10 µM.

Take `COc1ccc(C(=O)CC2(O)C(=O)Nc3ccccc32)cc1` (stereo not given): the IC50 in series [3] is more than 10 µM; in series [1] (setting [7]), more than 100 µM.

Take `O=C1Nc2ccccc2C1=Cc1cccnc1` (mixture of isomers): the IC50 is more than 10 µM in series [3] and 67.5 µM in series [1] (a549, read-out: IC50).

In the case of `O=C1Nc2ccc(Br)cc2C1=Cc1cccs1` (mixture of isomers), the results for the IC50 in series [3] and in series [1] (setting [7]) were more than 10 µM and 427 µM, respectively.

As for `O=C1Nc2ccc(Br)cc2C1=Cc1ccc(Br)cc1` (mixture of isomers), the IC50 in series [3] was more than 10 µM; in series [1] (setting [7]), 242 µM.

Regarding `O=C1Nc2ccc(Br)cc2C1=Cc1ccco1` (mixture of isomers), the values for the IC50 in series [3] and in series [1] (setting [7]) were more than 10 µM and 449 µM, respectively.
